Results on 20 compounds are retold here after PubChem BioAssay AID280 (DTP/NCI, 2004).

The test system of this assay is nude mice, LOX melanoma ip, survival T/C. Put plainly: NCI In Vivo Anticancer Drug Screen. Data for tumor model Human Amelanotic Melanoma (LOX) (intraperitoneal) in NU/NU BALB/C (nude) mice. To be noted: endpoint: median survival time, higher = longer survival. On the procedure:
The antitumor activity of compounds was measured in mice bearing transplantable tumors. Survival or tumor size were measured and the results are expressed as the measurement made in the treated group (T) divided by the measurement made in the vehicle treated control group (C). The tumor model used in this assay is Human Amelanotic Melanoma (LOX) (intraperitoneal) in NU/NU BALB/C (nude) mice

[1] abbreviates: dose: 18.75 mg/kg/injection, schedule: Q04DX003 (ip), vehicle: water.
[2] abbreviates: dose: 37.5 mg/kg/injection, schedule: Q04DX003 (ip), vehicle: Klucel (hydroxypropylcellulose) (HPC).
The mark [3] stands for this setting: dose: 75.0 mg/kg/injection, schedule: Q04DX003 (ip), vehicle: Klucel (hydroxypropylcellulose) (HPC).
Where [4] appears, read: dose: 75.0 mg/kg/injection, schedule: Q04DX003 (ip), vehicle: saline with Tween-80.
Where [5] appears, read: dose: 150.0 mg/kg/injection, schedule: Q04DX003 (ip), vehicle: saline with Tween-80.
Setting [6] is: dose: 300.0 mg/kg/injection, schedule: Q04DX003 (ip), vehicle: saline with Tween-80.
Setting [7] is: dose: 50.0 mg/kg/injection, schedule: Q04DX003 (ip), vehicle: Klucel (hydroxypropylcellulose) (HPC).
Where [8] appears, read: dose: 100.0 mg/kg/injection, schedule: Q04DX003 (ip), vehicle: Klucel (hydroxypropylcellulose) (HPC).
Where [9] appears, read: dose: 200.0 mg/kg/injection, schedule: Q04DX003 (ip), vehicle: Klucel (hydroxypropylcellulose) (HPC).
Where [10] appears, read: dose: 400.0 mg/kg/injection, schedule: Q04DX003 (ip), vehicle: Klucel (hydroxypropylcellulose) (HPC).
Setting [11] is: dose: 18.75 mg/kg/injection, schedule: Q04DX003 (ip), vehicle: Klucel (hydroxypropylcellulose) (HPC).
Where [12] appears, read: dose: 12.5 mg/kg/injection, schedule: Q04DX003 (ip), vehicle: saline with Tween-80.
Where [13] appears, read: dose: 25.0 mg/kg/injection, schedule: Q04DX003 (ip), vehicle: saline with Tween-80.
Where [14] appears, read: dose: 50.0 mg/kg/injection, schedule: Q04DX003 (ip), vehicle: saline with Tween-80.
The mark [15] stands for this setting: dose: 100.0 mg/kg/injection, schedule: Q04DX003 (ip), vehicle: saline with Tween-80.

Values joined by “and” are separate entries in the source; they are usually repeats but may differ in a detail not shown here. Equal entries are not always repeated. Toxic doses and inconclusive results are not listed.

With `O=C1CN(c2ccccc2)C(=O)C1C(=O)Nc1ccc(Cl)c(Cl)c1` (centres undefined), the T/C (dose: 120.0 mg/kg/injection, schedule: Q04DX003 (ip), vehicle: saline with Tween-80) was 115 % of control.

For `CCOC(=O)NC1CCc2cc(OC)c(OC)c(OC)c2-c2ccc(OC)c(=O)cc21` (centres undefined), the T/C reads like this: (dose: 2.5 mg/kg/injection, schedule: Q04DX003 (ip), vehicle: Klucel (hydroxypropylcellulose) (HPC)) 154 % of control; (dose: 5.0 mg/kg/injection, schedule: Q04DX003 (ip), vehicle: Klucel (hydroxypropylcellulose) (HPC)) 154 % of control; (dose: 10.0 mg/kg/injection, schedule: Q04DX003 (ip), vehicle: Klucel (hydroxypropylcellulose) (HPC)) 178 % of control; (dose: 20.0 mg/kg/injection, schedule: Q04DX003 (ip), vehicle: Klucel (hydroxypropylcellulose) (HPC)) 214 % of control.

As to `COc1cccc2c1C(=O)c1c(O)c3c(c(O)c1C2=O)C[C@](O)(C(=O)CO)CC3OC1CC(N)C(OC2CCCCO2)C(C)O1` (some centres undefined), the T/C runs as follows: (dose: 0.94 mg/kg/injection, schedule: Q04DX003 (ip), vehicle: water) 122 % of control; (dose: 7.5 mg/kg/injection, schedule: Q04DX003 (ip), vehicle: water) 160 % of control; (dose: 15.0 mg/kg/injection, schedule: Q04DX003 (ip), vehicle: water) 150 % of control.

Consider `c1ccc2c3c(c4c(c2c1)CN(C1CCCCC1)CO4)OCN(C1CCCCC1)C3`, for which the T/C was 102 % of control under setting [1]; 107 % of control (dose: 37.5 mg/kg/injection, schedule: Q04DX003 (ip), vehicle: water); 123 % of control (dose: 75.0 mg/kg/injection, schedule: Q04DX003 (ip), vehicle: water).

As for `C=C1c2cccc(O)c2C(O)=C2C(=O)[C@]3(O)C(O)=C(C(N)=O)C(=O)[C@@H](N(C)C)[C@@H]3[C@@H](O)[C@H]12`, the T/C was 94 % of control under setting [2]; 91 % of control under setting [3]; 92 % of control (dose: 300.0 mg/kg/injection, schedule: Q04DX003 (ip), vehicle: Klucel (hydroxypropylcellulose) (HPC)).

On to `O=C1c2ccccc2C(Cl)(c2ccc(Cl)cc2)c2ccc(Cl)cc21` (centres undefined), for which the T/C is 93 % of control under setting [4]; 116 % of control under setting [5]; 92 % of control under setting [6]; 87 % of control (dose: 600.0 mg/kg/injection, schedule: Q04DX003 (ip), vehicle: saline with Tween-80); 93 % of control (dose: 1200.0 mg/kg/injection, schedule: Q04DX003 (ip), vehicle: saline with Tween-80).

Consider `CN1C2C=CC(=O)C1C1C(=O)N(c3ccccc3)C(=O)C12` (centres undefined), for which the T/C reads like this: under setting [7], 100 % of control; under setting [8], 96 % of control; under setting [9], 99 % of control; under setting [10], 100 % of control.

Regarding `CCCCCCn1c(SC)nc(COC(=O)NC)c1COC(=O)NC`, the T/C by setting is: (dose: 33.7 mg/kg/injection, schedule: Q04DX003 (ip), vehicle: saline) 118 % of control; (dose: 40.1 mg/kg/injection, schedule: Q04DX003 (ip), vehicle: water) 97 % of control; (dose: 60.1 mg/kg/injection, schedule: Q04DX003 (ip), vehicle: water) 87 % of control; (dose: 67.5 mg/kg/injection, schedule: Q04DX003 (ip), vehicle: saline) 171 % of control; (dose: 90.0 mg/kg/injection, schedule: Q04DX003 (ip), vehicle: water) 97 % of control; (dose: 135.0 mg/kg/injection, schedule: Q04DX003 (ip), vehicle: saline) 208 % of control. Also, the T/C was 86 % of control (dose: 135.0 mg/kg/injection, schedule: Q04DX003 (ip), vehicle: water) and 99 % of control (dose: 202.4 mg/kg/injection, schedule: Q04DX003 (ip), vehicle: water).

For `COc1ccc(C[C@@H]2NC[C@@H](O)[C@@H]2OC(C)=O)cc1`, the T/C (dose: 37.5 mg/kg/injection, schedule: Q04DX003 (ip), vehicle: saline with Tween-80) was 101 % of control; the T/C under setting [4] was 101 % of control; the T/C under setting [5] was 103 % of control; the T/C under setting [6] is 101 % of control.

Regarding `CCCCCNc1ncnc2c(C)[nH]nc12`, the T/C is, setting by setting: under setting [11], 103 % of control; under setting [2], 94 % of control; under setting [3], 98 % of control; (dose: 150.0 mg/kg/injection, schedule: Q04DX003 (ip), vehicle: Klucel (hydroxypropylcellulose) (HPC)) 94 % of control.

Take `Cc1ccc2nc(-c3ccc4nc(-c5ccc(N=Nc6ccc(-c7nc8ccc(-c9nc%10ccc(C)c(S(=O)(=O)O)c%10s9)cc8s7)cc6)cc5)sc4c3)sc2c1S(=O)(=O)O`: the T/C reads like this: (dose: 75.0 mg/kg/injection, schedule: Q04DX003 (ip), vehicle: suspension in saline) 92 % of control; (dose: 150.0 mg/kg/injection, schedule: Q04DX003 (ip), vehicle: suspension in saline) 96 % of control.

As to `COc1cc2cc(c1Cl)N(C)C(=O)C[C@H](OC(=O)[C@H](C)N(C)C(C)=O)[C@]1(C)O[C@H]1[C@H](C)[C@@H]1C[C@@](O)(NC(=O)O1)[C@H](OC)C=C/C=C(\C)C2`, the T/C was 304 % of control (dose: 0.07 mg/kg/injection, schedule: Q04DX003 (ip), vehicle: Klucel (hydroxypropylcellulose) (HPC)); 304 % of control (dose: 0.12 mg/kg/injection, schedule: Q04DX003 (ip), vehicle: Klucel (hydroxypropylcellulose) (HPC)); 304 % of control and 323 % of control (dose: 0.2 mg/kg/injection, schedule: Q04DX003 (ip), vehicle: Klucel (hydroxypropylcellulose) (HPC)); 304 % of control (dose: 0.33 mg/kg/injection, schedule: Q04DX003 (ip), vehicle: Klucel (hydroxypropylcellulose) (HPC)); 95 % of control (dose: 0.4 mg/kg/injection, schedule: Q04DX003 (ip), vehicle: Klucel (hydroxypropylcellulose) (HPC)); 304 % of control (dose: 0.56 mg/kg/injection, schedule: Q04DX003 (ip), vehicle: Klucel (hydroxypropylcellulose) (HPC)).

For `Nc1ccn([C@@H]2C=C(CO)[C@@H](O)[C@H]2O)c(=O)n1`, the T/C (dose: 1.0 mg/kg/injection, schedule: Q01DX009 (ip), vehicle: saline) is 219 % of control.

Take `COc1cc2c(cc1OC)[C@@H]1C(=O)c3ccc4c(c3O[C@@H]1CO2)C[C@H](C(C)C)O4`: the T/C is, setting by setting: under setting [11], 113 % of control; under setting [2], 110 % of control.

As for `CC1c2ccccc2CC(CCN(C)C)c2ccccc21` (centres undefined), the T/C runs as follows: under setting [12], 109 % of control; under setting [13], 114 % of control; under setting [14], 114 % of control; under setting [15], 109 % of control.

For the compound `CC[C@@]1(O)C[C@H](OC2CC(N(C)C)C(OC3CC4OC5CC(=O)C(C)OC5OC4C(C)O3)C(C)O2)c2c(O)c3c(c(O)c2[C@H]1OC1CC(N(C)C)C(O)C(C)O1)C(=O)c1cccc(O)c1C3=O` (some centres undefined), the T/C runs as follows: (dose: 63.0 micrograms/kg/injection, schedule: Q04DX003 (ip), vehicle: saline) 115 % of control; (dose: 125.0 micrograms/kg/injection, schedule: Q04DX003 (ip), vehicle: saline) 111 % of control; (dose: 250.0 micrograms/kg/injection, schedule: Q04DX003 (ip), vehicle: saline) 108 % of control and 94 % of control.

As to `CCN(CC)CC(=O)O[C@]1(CC)C(=O)OCc2c1cc1n(c2=O)Cc2cc3ccccc3nc2-1`, the T/C under setting [1] is 239 % of control.

On to `[NH-]C(CCC(N)=O)C(=O)O.[NH-]C(CCC(N)=O)C(=O)O.[Zn+2]` (centres undefined), for which the T/C under setting [12] was 94 % of control, the T/C under setting [13] was 94 % of control and the T/C under setting [14] was 118 % of control.

Take `CN(C)c1ccc2c(Nc3ccc(NS(C)(=O)=O)cc3)c3ccc(N(C)C)cc3nc2c1`: the T/C was 101 % of control (dose: 25.0 mg/kg/injection, schedule: Q04DX003 (ip), vehicle: Klucel (hydroxypropylcellulose) (HPC)); 98 % of control under setting [7]; 113 % of control under setting [8]; 163 % of control under setting [9]; 109 % of control under setting [10].

On to `COc1cc(C2CC(C)(O)Oc3cc4c(cc32)OCO4)cc(OC)c1OC` (centres undefined), for which the T/C under setting [14] was 109 % of control and 98 % of control; the T/C under setting [15] was 96 % of control; the T/C (dose: 200.0 mg/kg/injection, schedule: Q04DX003 (ip), vehicle: saline with Tween-80) was 93 % of control.
